{"source": "patent US9844513B2", "about": "“Oral pharmaceutical composition” (Sigmoid Pharma Limited, priority 2007, dated 2017)", "molecules": {"B1": {"name": "OVA in solution: Ovalbumin antigen given in solution, comparison group (protein, UniProt P01012 2-386, looked up)", "Ovalbumin": "GSIGAASMEFCFDVFKELKVHHANENIFYCPIAIMSALAMVYLGAKDSTRTQINKVVRFDKLPGFGDSIEAQCGTSVNVHSSLRDILNQITKPNDVYSFSLASRLYAEERYPILPEYLQCVKELYRGGLEPINFQTAADQARELINSWVESQTNGIIRNVLQPSSVDSQTAMVLVNAIVFKGLWEKAFKDEDTQAMPFRVTEQESKPVQMMYQIGLFRVASMASEKMKILELPFASGTMSMLVLLPDEVSGLEQLESIINFEKLTEWTSSNVMEERKIKVYLPRMKMEEKYNLTSVLMAMGITDVFSSSANLSGISSAESLKISQAVHAAHAEINEAGREVVGSAEAGVDAASVSEEFRADHPFLFCIKHIATNAVLFFGRCVSP"}}, "key": {"DSS-induced colitis mice": {"system": "DSS-induced colitis mice", "assay": "DSS-induced colitis in mice (DSS 2.5% in drinking water)", "type": "in vivo", "details": "8 mg DMOG every second day", "protocol": "Colitis was induced in mice using DSS 2.5% in drinking water. DMOG mini-capsules of example 20 with two different coating were used, namely DSS-bead (0.25 mg—immediate release), and DSS-COAT-bead (DSS-COAT beads coated with 22% Surelease®—DMOG: 0.25 mg/day) and were compared to non-treated DSS-induced colitis mice and mice treated with 8 mg DMOG IP every second day. The minicapsules were prepared using the method described in Example 20 above.\nAs DMOG is known to increase the production of erythropoietin it is expected that in the presence of systemic DMOG that the packed cell volume would be increased. The packed cell volume (PCV) is a measurement of the proportion of blood that is made up of cells. The value is expressed as a percentage or fraction of cells in blood. The PCV rises when the number of red blood cells increases. […] Thus, it could be concluded that when administered within the intestinal or colonic lumen that it acts locally at low dose and negligible concentrations are systemically available.\nReferring to FIG. 21, the disease activity index (DAI) is calculated as the sum of scores of weight loss, stool consistency and blood in feces. […] The minicapsules were prepared using the method described in Example 20 above.\nA major symptom of DSS-induced colitis is weight loss. […] Likewise, when 0.25 mg DMOG is administered daily as colon-specific beads (DSS-COAT beads coated with 22% Surelease®—DMOG: 0.25 mg/day), the protective effect is pronounced. […] The minicapsules were prepared using the method described in Example 20 above."}, "[1]": {"details": "cited from earlier work"}, "[2]": {"system": "antigen specific IgA and IgG", "assay": "Antigen specific IgA and IgG in intestinal washes by ELISA after immunisation of mice", "type": "in vivo", "details": "intestinal washes one week after booster", "protocol": "FIG. 9 represents the immune response in mice immunised with minicapsules as described in Example 5 and Example 6. […] Mice were immunised on 3 consecutive days on week 0 followed by an identical series of booster immunisations at week 2. Intestinal washes were collected one week following the booster and antigen specific IgA and IgG was assessed by ELISA."}}, "note": "Where two headings read alike, the source gives them in different places."}
{"molecule": "COC(=O)CNC(=O)C(=O)OC", "note": "[DMOG, dimethyloxalglycine]", "values": [{"measurement": "colon length (colon shortening)", "setting": "DSS-induced colitis mice; Day 7, IP", "result": "significantly reduced colon shortening"}, {"measurement": "packed cell volume (PCV)", "setting": "DSS-induced colitis mice; Day 7, IP", "result": "increases the PCV"}, {"measurement": "protective effect (weight loss) compared with non-treated DSS mice", "setting": "DSS-induced colitis mice; IP", "result": "significant protective effect"}, {"measurement": "Disease Activity Index (DAI)", "setting": "DSS-induced colitis mice; IP, 7 days", "result": "high DAI"}]}
{"molecule": "COc1ccccc1OCCNCC(O)COc1cccc2[nH]c3ccccc3c12", "note": "(centres unmarked) [Carvedilol]", "values": [{"measurement": "time to reach maximum plasma concentration", "setting": "[1]; absorbed from the small intestine", "result": "within two hours"}, {"measurement": "relative absorption", "setting": "[1]; colon", "result": "~7", "unit": "%"}, {"measurement": "absolute bioavailability", "setting": "[1]; extensive first-pass metabolism", "result": "approximately 25%"}, {"measurement": "relative absorption", "setting": "[1]; ileum", "result": "~28", "unit": "%"}, {"measurement": "half-life", "setting": "[1]; in vivo", "result": "7 to 10", "unit": "h"}, {"measurement": "relative absorption", "setting": "[1]; jejunum", "result": "approximately 56%"}]}
{"molecule": "B1", "values": [{"measurement": "titres of antigen specific IgG in the intestinal washes", "setting": "[2]", "result": "highest responses"}]}
